# “And” between values parts separate entries of the source, which are not always exact repeats. Equal entries are not always repeated.
# How the values were obtained:
# [1] = target: hnRNP-E1 binding to folate receptor mRNA and hnRNP-E1 mRNA cis-element (Homo sapiens, UniProt Q15365); details: physiologically relevant thiols; cited from earlier work
# [2] = target: T1, RNA-protein complexes of GST-hnRNP-E1 and 25-nt hnRNP-E1 mRNA cis-element (Homo sapiens, UniProt Q15365, A205V); test: Gel-shift assay: effect of thiols, iron and deferoxamine on RNA-protein complex formation; type: binding; details: 100-μM thiol
# T1 construct: made in house; host or cells: Escherichia coli BL21
# T1 sequence (Q15365 whole entry A205V, one chain of several): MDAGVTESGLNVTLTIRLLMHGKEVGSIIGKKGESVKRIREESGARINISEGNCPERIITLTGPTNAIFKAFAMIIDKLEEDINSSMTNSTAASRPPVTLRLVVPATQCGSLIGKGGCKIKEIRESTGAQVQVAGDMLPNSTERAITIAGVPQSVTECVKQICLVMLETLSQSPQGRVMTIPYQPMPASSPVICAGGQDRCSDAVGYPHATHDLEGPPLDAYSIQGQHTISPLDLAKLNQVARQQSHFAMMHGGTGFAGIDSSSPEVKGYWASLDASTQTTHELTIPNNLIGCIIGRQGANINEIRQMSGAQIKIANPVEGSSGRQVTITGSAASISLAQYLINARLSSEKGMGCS
# hnRNP-E1 mRNA = test: In vitro translation of hnRNP-E1; type: biochemical, human; details: agent added to translation mixture (4.1-mM ß-ME)
# Method: (§1) In vitro transcription-translation was carried out using the Linked SP6/T7 In Vitro Transcription/Translation Kit (Roche Applied Science) after addition of one of various targeted DNAs—pSPT18-25-hnRNP-E1 DNA, or Pst1-linearized plasmid pSPT18-folate receptor-α, or HPV16 L2 DNA, (0.5 μg/reaction)—to the transcription mix as described. In other experiments, the capacity for perturbing the interaction of hnRNP-E1 with the 25-nt hnRNP-E1 cis-element during in vitro translation was assessed in the presence of either scrambled oligonucleotides (5′-[…]-3′ SEQ ID NO:20) or specific antisense oligonucleotides (5′-[…]-3′ SEQ ID NO:21) generated against the 25-nt hnRNP-E1 mRNA cis-element (GenScript USA, Piscataway, N.J.).
# folate receptor-α mRNA = test: In vitro translation of folate receptor-α; type: biochemical, human
# Method: In vitro transcription-translation was carried out using the Linked SP6/T7 In Vitro Transcription/Translation Kit (Roche Applied Science) after addition of one of various targeted DNAs—pSPT18-25-hnRNP-E1 DNA, or Pst1-linearized plasmid pSPT18-folate receptor-α, or HPV16 L2 DNA, (0.5 μg/reaction)—to the transcription mix as described. In other experiments, the capacity for perturbing the interaction of hnRNP-E1 with the 25-nt hnRNP-E1 cis-element during in vitro translation was assessed in the presence of either scrambled oligonucleotides (5′-GCGTCGCTCGCTTCGCACGTGCGCC-3′ SEQ ID NO:20) or specific antisense oligonucleotides (5′-GGG AGC GAG CGG GCG GGA G-3′ SEQ ID NO:21) generated against the 25-nt hnRNP-E1 mRNA cis-element (GenScript USA, Piscataway, N.J.).
# [3] = target: T1, RNA-protein complexes of GST-hnRNP-E1 and 25-nt hnRNP-E1 mRNA cis-element; test: Gel-shift assay: effect of thiols, iron and deferoxamine on RNA-protein complex formation; type: binding; details: fixed L-homocysteine
# Method: Other studies assessed the effect of iron(II) or iron(III) on homocysteine-induced RNA-protein interactions.
# Studies were conducted to evaluate the effect of iron(II) (as ferrous sulfate heptahydrate) or iron(III) (as ferric chloride hexahydrate) in modulating RNA-protein interactions during gel-shift assays in either the absence or presence of 10-mM glutathione. The iron preparation, either alone or with 50-μM of deferoxamine (DFO) to define the specificity of iron(II), was incubated first with glutathione and hnRNP-E1 before addition of other components of the reaction mixture. […] The samples were analyzed by PAGE and autoradiography overnight followed by densitometric analysis of the signals representing RNA-protein complexes.
# [4] = system: newly synthesized [^35S]hnRNP-E1 in placental 1584-HF cells; test: Biosynthetic rate of hnRNP-E1 after oligonucleotide transfection into placental 1584-HF cells; type: cell-based, human; details: oligonucleotide transfected into placental 1584-HF cells
# Excerpt: On the day before transfection, placental 1584-HF cells were trypsinized, counted, and plated in 6-well plates at 2×10^5 cells per well in 2.5-mL of MEM-HF medium, so that cells would be 70-80% confluent after overnight culture. Cells were then transfected with either wild-type, or scrambled DNA, or antisense DNA to 25-nt hnRNP-E1 cis-element using Lipofectamine 2000 DNA transfection reagent and the manufacturer's protocol. One well of cells was trypsinized and harvested on day-3 (2 days after transfection) as a control. Cells in the remaining 5 wells were starved of cysteine using cysteine-free MEM-HF for 4-h following which the rate of biosynthesis of hnRNP-E1 protein was determined in transfected cells by specifically immunoprecipitating and quantifying newly synthesized [^35S]hnRNP-E1.
# [5] = system: 25-nt hnRNP-E1 mRNA cis-element; test: Gel-shift assay of hnRNP-E1 proteins with 25-nt hnRNP-E1 mRNA cis-element; type: binding, human; details: absence of L-homocysteine
# Method: (§2) Parenthetically, there was no significant difference in RNA binding to GST-hnRNP-E1 by use of either 32P-RNA probes or 35S-labeled RNA probes used. Other studies assessed the effect of iron(II) or iron(III) on homocysteine-induced RNA-protein interactions.
# Recombinant GST-plasmid DNA, pGST-hnRNP-E1, pGST-hnRNP-E2, and related engineered variant plasmids were transformed into BL21 Escherichia coli from Novagen (Madison, Wis.). After induction by 1 mM isopropyl-1-thio-ß-D-galactopyranoside, the GST-hnRNP-E1 and engineered variant fusion proteins were individually purified using the B-PER GST Fusion Protein Purification Kit (Pierce, Rockford, Ill.). The eluted GST fusion proteins were dialyzed against 500 volumes of buffer to remove excess reducing reagents (such as dithiothreitol (DTT)) and assayed by SDS-PAGE and Western blots using anti-peptide hnRNP-E1 antiserum. Gel shift assays with target RNA were carried out as described.
# [6] = system: newly synthesized [^35S]hnRNP-E1 in placental 1584-HF cells; test: Biosynthetic rate of hnRNP-E1 after protein transfection into placental 1584-HF cells; type: cell-based, human; details: protein transfected in placental 1584-HF cells
# Excerpt: (§3) Transfection of purified recombinant wild-type or various mutant hnRNP-E1 proteins into cells was achieved using the Xfect™ Protein Transfection Kit (Clontech, Mountain View, Calif.). Briefly, placental 1584-HF cells in 10-cm dishes at 70-80% confluence were transfected with 2.4-mL serum-free medium and Xfect Protein Transfection Reagent (1.2-mL) containing 20-μg of either wild-type hnRNP-E1-, or highest-affinity (HA)-hnRNP-E1(C293S)-mutant, or wild-type-like hnRNP-E1 (G292A)-mutant proteins and 2-μg of ß-galactosidase at 37° C. for 60-min. After cysteine-starvation for 4-h, an aliquot of cells were assessed for ß-galactosidase activity (to measure the efficiency of co-transfection of ß-galactosidase) and the remaining cells were pulsed with L-[^35S]cysteine (250-μCi) and assessed for specific [^35S]cysteine incorporated into folate receptor to determine the biosynthetic rate of this protein. A similar protocol was employed for analysis of newly synthesized [^35S]hnRNP-E1 using anti-hnRNP-E1 antiserum-coupled agarose and control agarose in order to derive values for specific [^35S]cysteine incorporated into hnRNP-E1 and thereby determine the biosynthetic rate of this protein.
# [7] = system: newly synthesized [^35S]folate receptors in placental 1584-HF cells; test: Biosynthetic rate of folate receptors after protein transfection into placental 1584-HF cells; type: cell-based, human; details: protein transfected in placental 1584-HF cells
# Excerpt: as §3
# [8] = target: [^35S]18-nt folate receptor-α mRNA cis-element; test: Dissociation constant (KD) of GST-hnRNP-E1 or its mutant proteins for the 18-nt folate receptor-α mRNA cis-element; type: binding, human; details: L-Homocysteine 0 μM; listed as wild-type-like hnRNP-E1(G292A)-mutant
# Method: (§4) Methods for testing the ability of an engineered hnRNP-E1 variant polypeptide to bind to an RNA comprising the sequence of SEQ ID NO:6 are known in the art. Such methods include, but are not limited to, RNA electrophoretic mobility shift assays, as exemplified herein, RNA pull-down assays, and oligonucleotide-targeted RNase H protection assays. Such assays are conducted in the presence or absence of homocysteine to determine the RNA-binding dependence of any particular hnRNP-E1 polypeptide tested on the presence of homocysteine. […] Additional methods are outline in Tang et al. (“Incrimination of heterogeneous nuclear ribonucleoprotein E1 (hnRNP-E1) as a candidate sensor of physiological folate deficiency.” J Biol Chem. 2011; 286(45):39100-39115), which is incorporated herein in its entirety.
# (§5) Specific binding was determined by subtracting values of non-specific binding with GST from those of total binding with GST-hnRNP-E1; (however, in Table 1 and FIG. 6G, non-specific binding using bovine serum albumin (BSA) was subtracted from total binding to GST-hnRNP-E1 to determine specific binding). The KD was calculated from a Scatchard plot using GraphPad Prism 6 from GraphPad Software (San Diego, Calif.), as previously described in the art.
# [9] = target: [^35S]25-nt hnRNP-E1 mRNA cis-element; test: Dissociation constant (KD) of GST-hnRNP-E1 or its mutant proteins for the 25-nt hnRNP-E1 mRNA cis-element; type: binding, human; details: L-Homocysteine 0 μM
# Method: as §4, §5
# HPV16 L2 RNA = test: In vitro translation of HPV16 L2 protein; type: biochemical, Human Papillomavirus type 16; details: after quenching excess ß-ME by NEM (2 mM)
# Method: as §1
# (§6) Construction of plasmids for generation of HPV16 L2 RNA, gel-shift and in vitro translation studies were carried as described with additional treatments shown in FIGS. 10A-10D
# [10] = system: HPV16 L2 mRNA cis-element; test: Gel-shift assay of hnRNP-E1 proteins with HPV16 L2 mRNA; type: binding, Human Papillomavirus type 16; details: absence of reducing agents; versus wild-type and G292A
# Method: as §2, §6
# [11] = listed as wild-type-like hnRNP-E1(G292A)-mutant
# hnRNP-E1 binding to folate receptor mRNA and hnRNP-E1 mRNA cis-element, sequence (Q15365 whole entry): as the sequence (Q15365 whole entry A205V, one chain of several) above, with V205A counted along it
compound,measurement,setting,value
NC(CCS)C(=O)O (racemic) [DL-homocysteine],hnRNP-E1 activation and mRNA-binding,[1],far less
O[C@H](CS)[C@H](O)CS (racemic) [dithiothreitol],RNA-protein signals relative to L-homocysteine,[2],much stronger RNA-protein signals
N[C@H](CCS)C(=O)O [D-homocysteine],hnRNP-E1 activation and mRNA-binding,[1],did not have any effect
"N[C@@H](CS)C(=O)O [L-Cysteine, L-cysteine]",hnRNP-E1 activation and mRNA-binding,[1],far less
same,RNA-protein signals relative to L-homocysteine,[2],far weaker
CCN1C(=O)C=CC1=O [N-ethylmaleimide],effect on in vitro translation of hnRNP-E1,hnRNP-E1 mRNA,progressive reduction in the amount of hnRNP-E1 translated
same,basal translation of folate receptor-α mRNA in vitro,folate receptor-α mRNA; increasing NEM,diminished in a dose-dependent manner
N[C@@H](CCC(=O)N[C@@H](CS)C(=O)NCC(=O)O)C(=O)O [glutathione],hnRNP-E1 activation and mRNA-binding,[1],far less
same,RNA-protein signals relative to L-homocysteine,[2],no detectable signals
NC1CCSC1=O (stereo not shown) [homocysteine thiolactone],hnRNP-E1 activation and mRNA-binding,[1],far less
"O.O.O.O.O.O.[Cl-].[Cl-].[Cl-].[Fe+3] [iron(III), ferric chloride hexahydrate]",effect on RNA-complex formation,[3]; 10-mM glutathione,comparable dose-dependent reduction in RNA-complex formation
same,effect on formation of RNA-protein complexes,[3]; no glutathione,no such influence
CSCC[C@H](N)C(=O)O [methionine],hnRNP-E1 activation and mRNA-binding,[1],did not have any effect
same,RNA-protein signals relative to L-homocysteine,[2],no detectable signals
"OCCS [ß-ME, ß-mercaptoethanol]",RNA-protein signals relative to L-homocysteine,[2],much stronger RNA-protein signals
Antisense: antisense oligonucleotides (5′-GGG AGC GAG CGG GCG GGA G-3′ SEQ ID NO:21) against the 25-nt hnRNP-E1 mRNA cis-element (antisense GGGAGCGAGCGGGCGGGAG; chemistry not given here),effect on in vitro translation of hnRNP-E1,hnRNP-E1 mRNA,dose-dependent inhibition of translation of hnRNP-E1
same,[^35S]cysteine-hnRNP-E1 protein,[4],0.62 ± 0.02 b fmol/mg protein/h
same,[^35S]cysteine-hnRNP-E1 protein,[4]; listed as antisense oligonucleotides,0.62 fmol/mg protein/h
"GST-hnRNP-E1(G292A): control mutant, glycine-292 mutated to alanine; behaved similar to wild-type hnRNP-E1",RNA-protein gel-shift signal,[5],no RNA-protein gel-shift signals
same,[^35S]cysteine-hnRNP-E1,[6],1.03 ± 0.21 b fmol/mg protein/h
same,[^35S]cysteine-hnRNP-E1,[6]; [11],1.03 fmol/mg protein/h
same,[^35S]cysteine-folate receptor,[7],1.79 ± 0.13 b fmol/mg protein/h
same,[^35S]cysteine-folate receptor,[7]; [11],1.79 fmol/mg protein/h
same,Kd,[8],1.57 nM and 1.5 nM
same,Kd,[9],2.02 nM
same,HPV16 L2 protein signal,HPV16 L2 RNA,insignificant reduction of HPV16 L2 protein signal
Scrambled: scrambled oligonucleotides (5′-GCGTCGCTCGCTTCGCACGTGCGCC-3′ SEQ ID NO:20) (GCGTCGCTCGCTTCGCACGTGCGCC; chemistry not given here),effect on in vitro translation of hnRNP-E1,hnRNP-E1 mRNA,failed to quench the translation of hnRNP-E1
same,[^35S]cysteine-hnRNP-E1 protein,[4],1.01 ± 0.03 a fmol/mg protein/h
same,[^35S]cysteine-hnRNP-E1 protein,[4]; listed as scrambled-oligonucleotides,1.0 fmol/mg protein/h
hnRNP-E1(C54S)-mutant: hnRNP-E1 with cysteine-54 replaced by serine (SEQ ID NO:3),interaction with HPV16 L2 mRNA on gel-shift assays,[10],greater interaction
same,translation of folate receptor-α,folate receptor-α mRNA; presence of 2-mM NEM,maximally increased
